In paper PMC6600574 (Molecules, 2019):

Columns and labels:
[1] = DPPH radical scavenging assay; format: biochemical; details: DPPH in ethanol, 30 min
Procedure: Ascorbic acid was serially diluted to a concentration range of 0.78–100 µg/mL. Ethanol (10%) was used as a blank. Ninety microliters of a […] DPPH (2,2-diphenyl-1-picrylhydrazyl) in ethanol were added to each well. The plates were incubated for 30 min and covered in a layer of foil. Color controls (negative controls) were prepared in the exact same manner as above, but distilled water was added to each well instead of DPPH. The absorbances were measured at a wavelength of 515 nm using a BIO-TEK Power-Wave XS multiplate reader (BIO-TEK Instruments, Winooski, VT, USA). From the absorbances an IC50 value was determined.

[2] = Nitric oxide scavenging assay (nitroprusside, Griess reagent); format: biochemical; details: 10 mM nitroprusside, 90 min, read-out: NO IC50
Procedure: Ethanol (10%) was used as a blank. Nitroprusside (50 μL) at a concentration of 10 mM was added to all the wells. The plates were incubated for 90 min at room temperature. After incubation, Griess reagent (100 μL) was added to all the wells, except for the color controls (negative controls) where instead distilled water was added. The absorbances were read at a wavelength of 546 nm using a BIO-TEK Power-Wave XS multiplate reader. From the absorbances an IC50 value was determined.

IC50 [1]: 43.7 ± 1.12 µM
IC50 [2]: 144 ± 3.3 µM
Structure (SMILES): O=C1O[C@H]([C@@H](O)CO)C(O)=C1O [Ascorbic acid, reference compound]
